Experiment [1] has as its system Experimental Allergic Encephalomyelitis Induced in Female Lewis Rats. Put plainly: Experimental allergic encephalomyelitis, hindleg paralysis. The format is in vivo, rat (female Lewis). As to conditions: for Inhibition of EAE, result in words: rat, in vivo. The procedure: EAE is induced in Female (Charles River) Lewis rats by a single intradermal injection of 0.1 ml of an encephalitogenic emulsion consisting of equial parts of a 50% w/v homogenate of guinea pig spinal cord and mid-brain in 0.5% aqueous phenol and Freund's complete adjuvant (4 mg/ml killed, dried M. butyricum) into a hindpaw (left) footpad. […] Any animal which becomes paralyzed during the course of the experiment is considered to have developed EAE whether or not the paralysis is permanent. Test compounds are administered daily beginning on the day of injection, for 19 days, exclusive of days 5, 6 12 and 13. Drug activity is determined by comparing the indicidence of EAE (paralysis) of the treated group with a control (vehicle) group. The level of significant difference between the treated groups and control groups is determined by a Chi-square test using a 2×2 contingency table. Body weight changes from day 0 are also statistically compared to the control group using a Student "t" test.

Experiment [2] addresses T1, 5-Lipoxygenase (Rattus norvegicus, UniProt P12527).
T1 construct: The activities of these enzymes in extracts of RBL-1 cells were assayed; host or cells: RBL-1
T1 sequence (P12527 1-673): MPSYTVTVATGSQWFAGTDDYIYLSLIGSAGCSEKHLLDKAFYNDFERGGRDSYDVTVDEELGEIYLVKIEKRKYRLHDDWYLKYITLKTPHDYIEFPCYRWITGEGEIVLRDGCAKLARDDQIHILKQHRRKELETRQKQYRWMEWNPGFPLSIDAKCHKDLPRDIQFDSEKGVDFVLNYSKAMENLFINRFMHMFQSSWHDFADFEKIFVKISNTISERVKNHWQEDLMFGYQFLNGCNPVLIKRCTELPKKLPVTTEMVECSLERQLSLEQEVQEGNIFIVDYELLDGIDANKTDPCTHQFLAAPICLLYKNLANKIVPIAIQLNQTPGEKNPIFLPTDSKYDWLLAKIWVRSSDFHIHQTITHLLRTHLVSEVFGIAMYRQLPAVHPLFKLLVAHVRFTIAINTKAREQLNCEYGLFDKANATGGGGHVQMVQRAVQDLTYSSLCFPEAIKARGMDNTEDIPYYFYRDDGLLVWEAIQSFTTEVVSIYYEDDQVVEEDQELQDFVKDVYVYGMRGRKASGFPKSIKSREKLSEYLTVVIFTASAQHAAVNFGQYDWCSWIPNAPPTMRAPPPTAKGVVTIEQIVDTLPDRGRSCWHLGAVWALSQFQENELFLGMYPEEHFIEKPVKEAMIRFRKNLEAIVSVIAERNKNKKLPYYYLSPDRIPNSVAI
Description: 5-Lipoxygenase activity (5-HETE) in RBL-1 cell extracts, 10,000 x g supernatant. It counts as biochemical. The settings on record: Table 8.
Description: RBL-1 cells were obtained from the American Type Culture Collection (#CRL 1378) and were grown at 37° C. (5% CO2 in air) in spinner culture in MEM supplemented with 10% heat inactivated fetal calf serum. Harvested cells were washed with 50 mM sodium phosphate buffer, pH 7.0, containing 1 mM EDTA and 0.1% gelatin, resuspended in fresh buffer (5×10^7 cells/ml) and disrupted by nitrogen cavitation using the Parr bomb at 750 psi for 10 min. The broken cell extract was then centrifuged at 10,000× g for 20 minutes (min) and the supernatant centrifuged at 100,000 xIg for 60 min. Aliquots (0.25 mls) of the supernatant were preincubated with or without drugs for 10 min, after which 10 μl CaCl2 (50 mM) was added and the reaction was initiated with 2.5 μl of 2.5 mM arachidonic acid-1-^14 C (final concentration was 25 μM; specific activity 20,000 dpm/nmole). After incubation for 3 min at 37° C., the reaction was terminated by addition of 2 volumes (0.5 ml) ice cold acetone and the sample was allowed to deproteinize on ice for 10 min prior to centrifugation at 1,000× g for 10 min. […] Arachidonic acid, 5-HETE, LTB4 and PGD2 were quantified with a Berthold LB 2832 autoscanner.

The subject of experiment [3] is LTC4 production by human monocytes. Description: LTC4 production by human monocytes. It counts as cell-based. As to conditions: Monocyte; A23187-stimulated human monocytes. The protocol: The compounds of Formula (I) were evaluated for their ability to inhibit the production of LTC4 by human monocytes according to the following assay. Human monocytes were prepared from whole blood supplied by the American Red Cross. The blood was fractinated by a two-step procedure employing sedimentation on Ficoll followed by sedimentation on Percoll. […] Non-adherent cells were removed by washing. […] When drugs were evaluated, they were added to the cells 30 minutes prior to the A23187. Supernatants were collected, […] by centrifugation and stored frozed at -20° C. until assay. The LTC4 content was determined by using a New England Nuclear Leukotriene C-4 (^3 H) RIA Kit as per instructions.

In experiment [4] the target is T1, 5-Lipoxygenase. Put plainly: 5-HETE production by high speed supernatant of RBL-1 cells. The format is biochemical. The protocol:
For in vitro experiments, compounds were dissolved at appropriate concentrations in ethanol or DMSO (dimethylsulfoxide) (final concentration≤1.0%) and then diluted to final concentrations using the buffers indicated in the text.
The activities of these enzymes in extracts of RBL-1 cells were assayed using the method of Jakschik and Lee, Nature, 287, 51-52 (1980). RBL-1 cells were obtained from the American Type Culture Collection (#CRL 1378) and were grown at 37° C. (5% CO2 in air) in spinner culture in MEM supplemented with 10% heat inactivated fetal calf serum. Harvested cells were washed with 50 mM sodium phosphate buffer, pH 7.0, containing 1 mM EDTA and 0.1% gelatin, resuspended in fresh buffer (5×10^7 cells/ml) and disrupted by nitrogen cavitation using the Parr bomb at 750 psi for 10 min. The broken cell extract was then centrifuged at 10,000× g for 20 minutes (min) and the supernatant centrifuged at 100,000 xIg for 60 min. Aliquots (0.25 mls) of the supernatant were preincubated with or without drugs for 10 min, after which 10 μl CaCl2 (50 mM) was added and the reaction was initiated with 2.5 μl of 2.5 mM arachidonic acid-1-^14 C (final concentration was 25 μM; specific activity 20,000 dpm/nmole). After incubation for 3 min at 37° C., the reaction was terminated by addition of 2 volumes (0.5 ml) ice cold acetone and the sample was allowed to deproteinize on ice for 10 min prior to centrifugation at 1,000× g for 10 min. The deproteinized supernatant was adjusted to pH 3.5 with 2N formic acid and extracted with 2 volumes of ice cold ethyl acetate. The extracted samples were dried under argon, redissolved in ethyl acetate and applied to Whatman LK5D thin layer chromatography (TLC) plates which were developed using the A-9 solvent system [organic phase of ethyl acetate: 2,2,5-trimethylpentane:acetic acid: water (110:50:20:10)] described by Hamberg and Samuelsson, J. Biol. Chem., 241, 257-263 (1966). Arachidonic acid, 5-HETE, LTB4 and PGD2 were quantified with a Berthold LB 2832 autoscanner.
The 5-lipoxygenase and LTA4 synthetase activities were further studied under the following conditions. An additional centrifugation of the RBL-1 supernatant was run at 100,000× g for 60 min, to remove the particulate cyclooxygenase activity. Sample incubation was done under conditions similar to those described above, i.e., 2 mM CaCl2 and […] arachidonic acid-1-^14 C, however, with an incubation time of 5 min at 5° C. Under these conditions, only the 5-lipoxygenase pathway metabolites were detectable. The 5-HETE and di-HETEs were formed at a linear rate, and substantial amounts of the arachidonic acid-1-^14 C substrate were utilized.

The values that follow come from patent US5134150A, “Inhibition of the 5-lipoxygenase pathway” (priority 1989, dated 1992).

For the molecule `COc1ccc2c(c1)c(CC(=O)O)c(C)n2C(=O)c1ccc(Cl)cc1` [Indomethacin], the “Inhibition of EAE, result in words” value in experiment [1] is “not indomethacin”. The “IC50 5-Lipoxygenase” value in experiment [2] is listed as “Inactive @ 30”.

Turning to `Fc1ccc(-c2nc3n(c2-c2ccncc2)CCS3)cc1` [Compound 1], the “Hindleg paralysis - cumulative incidence, day 14 to 18” value in experiment [1] (60 mg/kg/day, p.o.) is on record as 0/11. Besides, the “Inhibition of EAE, result in words” value in experiment [1] was “efficacious”. This molecule had an IC50 in experiment [3] of 1800 nM. Also, the 5-HETE in experiment [4] (1 μM) was 8.86 ± 0.31 nM/ml; in experiment [4] (3.3 μM), 7.63 ± 0.44 nM/ml; in experiment [4] (10 μM), 5.57 ± 0.35 nM/ml; in experiment [4] (33 μM), 3.36 ± 0.07 nM/ml; in experiment [4] (100 μM), 1.08 ± 0.13 nM/ml.
